Results from patent publication US20240307547A1, “NOVEL COMPOUNDS WHICH BIND TO CEREBLON, AND METHODS OF USE THEREOF” (Captor Therapeutics S.A., priority 2020, published 2024).

What was measured:
SALL4 = SALL4 degradation assay, Kelly cell line (western blot densitometry); assay type: cell-based; conditions: Kelly cells, after 24 h
Procedure: (§1) Kelly cells were maintained in RPMI-1640 medium, supplemented with penicillin/streptomycin and 10% Fetal Bovine Serum (FBS). Cells were seeded on 6-well plates, and the compounds to be tested were added at the desired concentration range. Final DMSO concentration was 0.25%. After 24 h incubation (37° C., 5% CO2), cells were washed and cell lysates were prepared using RIPA lysis buffer. The amount of protein was determined via BCA assay, and the appropriate quantity was then loaded on the precast gel for the protein separation. After primary and secondary antibody staining, the membranes were washed and signals developed. The densitometry analysis was implemented to obtain the numeric values used later in the protein level evaluation process.
Densitometry values are normalized to the loading control (β-ACTIN) and presented as % of DMSO control in Table 2, below, using the following labels: • ≤25% for 0-25% of SALL4 protein reduction, • >25% for 26-74% of SALL4 protein reduction, • ≥75% for 75-100% of SALL4 protein reduction.

[1] = biological target: CRBN-DDB1 protein complex (Homo sapiens, UniProt Q96SW2); assay: Fluorescence polarization (FP) assay, displacement of Cy5-labelled thalidomide; conditions: read-out: CRBN binding Ki; note: 25 nM CRBN-DDB1
Chain of CRBN-DDB1 protein complex (Q96SW2 whole entry): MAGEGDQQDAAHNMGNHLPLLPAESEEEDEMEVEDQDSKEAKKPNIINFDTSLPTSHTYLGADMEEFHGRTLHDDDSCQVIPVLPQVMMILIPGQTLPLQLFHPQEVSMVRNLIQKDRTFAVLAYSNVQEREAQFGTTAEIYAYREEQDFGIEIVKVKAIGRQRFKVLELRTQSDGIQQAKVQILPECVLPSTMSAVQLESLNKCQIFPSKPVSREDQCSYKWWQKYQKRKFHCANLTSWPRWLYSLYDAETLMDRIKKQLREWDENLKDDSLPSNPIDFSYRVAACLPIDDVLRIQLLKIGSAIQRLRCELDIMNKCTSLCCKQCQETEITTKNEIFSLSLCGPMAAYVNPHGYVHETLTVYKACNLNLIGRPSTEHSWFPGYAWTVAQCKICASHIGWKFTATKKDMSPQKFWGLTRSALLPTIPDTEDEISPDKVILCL
Chain of CRBN-DDB1 protein complex (Q16531 whole entry partner): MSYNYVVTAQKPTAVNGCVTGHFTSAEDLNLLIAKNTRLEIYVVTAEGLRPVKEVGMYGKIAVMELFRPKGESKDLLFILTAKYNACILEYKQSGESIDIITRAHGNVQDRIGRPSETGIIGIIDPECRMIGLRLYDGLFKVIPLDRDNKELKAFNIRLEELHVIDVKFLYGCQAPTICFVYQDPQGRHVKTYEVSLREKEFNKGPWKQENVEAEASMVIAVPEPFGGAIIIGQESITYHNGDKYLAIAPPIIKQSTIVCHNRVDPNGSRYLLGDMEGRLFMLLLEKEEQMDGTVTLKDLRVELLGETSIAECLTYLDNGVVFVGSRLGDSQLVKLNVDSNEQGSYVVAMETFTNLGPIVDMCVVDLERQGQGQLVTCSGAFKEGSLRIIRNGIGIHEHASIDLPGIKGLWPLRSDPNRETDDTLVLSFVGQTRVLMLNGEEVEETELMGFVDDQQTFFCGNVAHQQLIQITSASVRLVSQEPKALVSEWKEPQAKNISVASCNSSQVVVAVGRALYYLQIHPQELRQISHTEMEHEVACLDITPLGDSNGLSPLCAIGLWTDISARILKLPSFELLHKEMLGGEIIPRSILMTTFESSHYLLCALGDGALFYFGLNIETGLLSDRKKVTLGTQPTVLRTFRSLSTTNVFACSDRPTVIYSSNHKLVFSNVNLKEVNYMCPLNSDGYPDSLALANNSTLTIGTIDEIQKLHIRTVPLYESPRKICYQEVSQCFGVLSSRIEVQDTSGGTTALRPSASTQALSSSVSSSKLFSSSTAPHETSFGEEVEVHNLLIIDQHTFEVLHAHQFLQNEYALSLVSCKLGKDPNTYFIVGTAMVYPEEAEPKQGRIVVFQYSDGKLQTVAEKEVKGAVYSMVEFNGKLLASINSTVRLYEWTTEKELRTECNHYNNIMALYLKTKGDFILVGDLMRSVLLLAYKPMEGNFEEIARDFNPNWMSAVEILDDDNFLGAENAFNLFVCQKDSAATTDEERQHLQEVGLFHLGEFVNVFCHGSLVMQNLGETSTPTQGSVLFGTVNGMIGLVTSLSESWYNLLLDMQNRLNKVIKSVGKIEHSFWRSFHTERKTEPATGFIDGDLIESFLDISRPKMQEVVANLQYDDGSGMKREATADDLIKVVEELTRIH
Procedure: The test solution was added to a 384-well assay plate.
The plate was spun-down (1 min, 1000 rpm, 22° C.) and then shaken using a VibroTurbulator for 10 min at room temperature (20-25° C.), with the frequency set to level 3. The assay plate with protein and the tracer was incubated for 60 min at room temperature (20-25° C.) prior to read-out with a plate reader.
The FP experiment was carried out with various concentrations of the test compounds in order to measure Ki values.

IKZF3 = IKZF3 degradation assay, H929 cell line (western blot densitometry); assay type: cell-based; conditions: H929 cells, after 24 h
Procedure: as §1, with “H929 cells were” for “Kelly cells were”, “Bovine Serum (FBS) and 0.05 mM 2-Mercaptoethanol. Cells were” for “Bovine Serum (FBS). Cells were”, “seeded on 6- or 12-well plates, and” for “seeded on 6-well plates, and”, “cells were harvested, washed and” for “cells were washed and”, “and secondary Ab staining, the” for “and secondary antibody staining, the”
Densitometry values are normalized to the loading control (β-ACTIN) and presented as % of DMSO control in Tables 4A and 4B, below, using the following labels: • ≤25% for 0-25% of IKZF3 protein reduction, • >25% for 26-74% of IKZF3 protein reduction, • ≥75% for 75-100% of IKZF3 protein reduction.

IKZF1 = IKZF1 degradation assay, H929 cell line (western blot densitometry); assay type: cell-based; conditions: H929 cells, after 24 h
Procedure: H929 cells were maintained in RPMI-1640 medium, supplemented with penicillin/streptomycin, 10% Fetal Bovine Serum (FBS) and 0.05 mM 2-Mercaptoethanol. Cells were seeded on 6- or 12-well plates, and the compounds to be tested were added at the desired concentration range. Final DMSO concentration was 0.25%. After 24 h incubation (37° C., 5% CO2), cells were harvested, washed and cell lysates were prepared using RIPA lysis buffer. The amount of protein was determined via BCA assay, and the appropriate quantity was then loaded on the precast gel for the protein separation. After primary and secondary Ab staining, the membranes were washed and signals developed. The densitometry analysis was implemented to obtain the numeric values used later in the protein level evaluation process.
Densitometry values are normalized to the loading control (β-ACTIN) and presented as % of DMSO control in Table 3, below, using the following labels: • ≤25% for 0-25% of IKZF1 protein reduction, • >25% for 26-74% of IKZF1 protein reduction, • ≥75% for 75-100% of IKZF1 protein reduction.

H929 (myeloma) = assay: Viability, CTG (CellTiter-Glo) assay; assay type: cell-based; conditions: Homo sapiens, NCI-H929, H929, 72 hours, 100% = DMSO, read-out: Average of % viability of quadruplicate
Procedure: Three thousand cells in 50 μL of culture medium were plated in 384-well plate, and incubated with 50, 13, and 2 μM of each compound for 72 hours. ATP content in the remaining cells after the treatment was quantitated with the CellTiter-Glo Luminescent Viability Assay Kit (Promega). The activity of the compound at each concentration was shown as percentage viability; 100% viability was the ATP content in the cells incubated with DMSO, the carrier of the compounds.

## Cc1nc2cccc(N)c2c(=O)n1C1CCC(=O)NC1=O (stereo not drawn) [CC-122]
SALL4; at 1 μM
  % of SALL4 protein reduction: ≥75% (≥75% for 75-100% of SALL4 protein reduction)
SALL4; at 10 μM
  % of SALL4 protein reduction: ≥75% (≥75% for 75-100% of SALL4 protein reduction)
SALL4; at 20 μM
  % of SALL4 protein reduction: ≥75% (≥75% for 75-100% of SALL4 protein reduction)

## Cc1nc2cccc(N)c2cc1C1CCC(=O)NC1=O (stereo not drawn) [Compound 1, 3-(5-amino-2-methylquinolin-3-yl)piperidine-2,6-dione]
[1]
  Ki: 1 to 5 µM
IKZF3; at 1 μM
  % of IKZF3 (bottom band) protein reduction: >25% (>25% for 26-74% of IKZF3 protein reduction)
  % of IKZF3 (upper band) protein reduction: >25% (>25% for 26-74% of IKZF3 protein reduction)
IKZF3; at 10 μM
  % of IKZF3 (bottom band) protein reduction: ≥75% (≥75% for 75-100% of IKZF3 protein reduction)
  % of IKZF3 (upper band) protein reduction: ≥75% (≥75% for 75-100% of IKZF3 protein reduction)
IKZF3; at 20 μM
  % of IKZF3 (bottom band) protein reduction: ≥75% (≥75% for 75-100% of IKZF3 protein reduction)
  % of IKZF3 (upper band) protein reduction: ≥75% (≥75% for 75-100% of IKZF3 protein reduction)
SALL4; at 1 μM
  % of SALL4 protein reduction: ≤25% (≤25% for 0-25% of SALL4 protein reduction)
SALL4; at 10 μM
  % of SALL4 protein reduction: >25% (>25% for 26-74% of SALL4 protein reduction)
SALL4; at 20 μM
  % of SALL4 protein reduction: >25% (>25% for 26-74% of SALL4 protein reduction)
IKZF1; at 1 μM
  % of IKZF1 protein reduction: >25% (>25% for 26-74% of IKZF1 protein reduction)
IKZF1; at 10 μM
  % of IKZF1 protein reduction: ≥75% (≥75% for 75-100% of IKZF1 protein reduction)
IKZF1; at 20 μM
  % of IKZF1 protein reduction: ≥75% (≥75% for 75-100% of IKZF1 protein reduction)
H929 (myeloma); at 2 μM
  viability at 2 µM: 61.2%
H929 (myeloma); at 13 μM
  viability at 13 µM: 47.5%
H929 (myeloma); at 50 μM
  viability at 50 µM: 32.9%

## Cc1nc2cccc([N+](=O)[O-])c2cc1C1CCC(=O)NC1=O (stereo not drawn) [Compound 2, 3-(2-methyl-5-nitroquinolin-3-yl)piperidine-2,6-dione]
[1]
  Ki: 1 to 5 µM

## Cc1nc2cccc(F)c2cc1C1CCC(=O)NC1=O (stereo not drawn) [Compound 3, 3-(5-fluoro-2-methylquinolin-3-yl)piperidine-2,6-dione]
[1]
  Ki: 1 to 5 µM

## Cc1nc2c(cnn2C)cc1C1CCC(=O)NC1=O (stereo not drawn) [Compound 4, 3-(1,6-dimethyl-1H-pyrazolo[3,4-b]pyridin-5-yl)piperidine-2,6-dione]
[1]
  Ki: 1 to 5 µM

## Cc1nc2ccc([N+](=O)[O-])cc2cc1C1CCC(=O)NC1=O (stereo not drawn) [Compound 5, 3-(2-methyl-6-nitroquinolin-3-yl)piperidine-2,6-dione]
[1]
  Ki: 5 to 10 µM

## Cc1nc2cc([N+](=O)[O-])ccc2cc1C1CCC(=O)NC1=O (stereo not drawn) [Compound 6, 3-(2-methyl-7-nitroquinolin-3-yl)piperidine-2,6-dione]
[1]
  Ki: 5 to 10 µM

## Cc1nc2c([N+](=O)[O-])cccc2cc1C1CCC(=O)NC1=O (stereo not drawn) [Compound 7, 3-(2-methyl-8-nitroquinolin-3-yl)piperidine-2,6-dione]
[1]
  Ki: 1 to 5 µM

## Cc1nc2cc(N)ccc2cc1C1CCC(=O)NC1=O (stereo not drawn) [Compound 8, 3-(7-amino-2-methylquinolin-3-yl)piperidine-2,6-dione]
[1]
  Ki: < 1 µM

## Cc1nc2cc(C(=O)N[C@@H](C)C3CCCCC3)ccc2cc1C1CCC(=O)NC1=O (stereo partly drawn) [Compound 9, N—((S)-1-cyclohexylethyl)-3-(2,6-dioxopiperidin-3-yl)-2-methylquinoline-7-carboxamide]
[1]
  Ki: 1 to 5 µM

## Cc1nc2c(N)cccc2cc1C1CCC(=O)NC1=O (stereo not drawn) [Compound 10, 3-(8-amino-2-methylquinolin-3-yl)piperidine-2,6-dione]
[1]
  Ki: < 1 µM

## Cc1nc2ccc(N)cc2cc1C1CCC(=O)NC1=O (stereo not drawn) [Compound 11, 3-(6-amino-2-methylquinolin-3-yl)piperidine-2,6-dione]
[1]
  Ki: < 1 µM

## O=C1CCC(c2cnc3cccc([N+](=O)[O-])c3c2)C(=O)N1 (stereo not drawn) [Compound 12, 3-(5-nitroquinolin-3-yl)piperidine-2,6-dione]
[1]
  Ki: 1 to 5 µM

## Cc1nc2ccccc2cc1C1CCC(=O)NC1=O (stereo not drawn) [Compound 13, 3-(2-methylquinolin-3-yl)piperidine-2,6-dione]
[1]
  Ki: 1 to 5 µM

## Nc1cccc2ncc(C3CCC(=O)NC3=O)cc12 (stereo not drawn) [Compound 14, 3-(5-aminoquinolin-3-yl)piperidine-2,6-dione]
[1]
  Ki: < 1 µM

## Cc1ccc(NC(=O)NCc2ccc3cc(C4CCC(=O)NC4=O)c(C)nc3c2)cc1Cl (stereo not drawn) [Compound 15, 1-(3-chloro-4-methylphenyl)-3-{[3-(2,6-dioxopiperidin-3-yl)-2-methylquinolin-7-yl]methyl}urea]
[1]
  Ki: < 1 µM

## Cc1nc2cc(CNC(=O)C(F)(F)c3ccc(Cl)cc3)ccc2cc1C1CCC(=O)NC1=O (stereo not drawn) [Compound 16, 2-(4-chlorophenyl)-N-{[3-(2,6-dioxopiperidin-3-yl)-2-methylquinolin-7-yl]methyl}-2,2-difluoroacetamide]
[1]
  Ki: < 1 µM

## Cc1nc2cccc(NS(=O)(=O)c3ccccc3OC(F)(F)F)c2cc1C1CCC(=O)NC1=O (stereo not drawn) [Compound 17, N-(3-(2,6-dioxopiperidin-3-yl)-2-methylquinolin-5-yl)-2-(trifluoromethoxy)benzenesulfonamide]
[1]
  Ki: < 1 µM

## Cc1nc2ccc(NS(=O)(=O)c3ccccc3OC(F)(F)F)cc2cc1C1CCC(=O)NC1=O (stereo not drawn) [Compound 18, N-(3-(2,6-dioxopiperidin-3-yl)-2-methylquinolin-6-yl)-2-(trifluoromethoxy)benzenesulfonamide]
[1]
  Ki: < 1 µM

## Cc1nc2cc(NS(=O)(=O)c3ccccc3OC(F)(F)F)ccc2cc1C1CCC(=O)NC1=O (stereo not drawn) [Compound 19, N-(3-(2,6-dioxopiperidin-3-yl)-2-methylquinolin-7-yl)-2-(trifluoromethoxy)benzenesulfonamide]
[1]
  Ki: < 1 µM

## Cc1nc2c(NS(=O)(=O)c3ccccc3OC(F)(F)F)cccc2cc1C1CCC(=O)NC1=O (stereo not drawn) [Compound 20, N-(3-(2,6-dioxopiperidin-3-yl)-2-methylquinolin-8-yl)-2-(trifluoromethoxy)benzenesulfonamide]
[1]
  Ki: 1 to 5 µM

## Cc1nc2c(Cl)cccc2cc1C1CCC(=O)NC1=O (stereo not drawn) [Compound 21, 3-(8-chloro-2-methylquinolin-3-yl)piperidine-2,6-dione]
[1]
  Ki: 1 to 5 µM

## O=C1CCC(N2C(=O)c3ccccc3C2=O)C(=O)N1 (stereo not drawn) [Thalidomide, reference compound]
IKZF3; at 1 μM
  % of IKZF3 (bottom band) protein reduction: ≤25% (≤25% for 0-25% of IKZF3 protein reduction)
  % of IKZF3 (upper band) protein reduction: ≤25% (≤25% for 0-25% of IKZF3 protein reduction)
IKZF3; at 10 μM
  % of IKZF3 (bottom band) protein reduction: ≤25% (≤25% for 0-25% of IKZF3 protein reduction)
  % of IKZF3 (upper band) protein reduction: ≤25% (≤25% for 0-25% of IKZF3 protein reduction)
IKZF3; at 20 μM
  % of IKZF3 (bottom band) protein reduction: >25% (>25% for 26-74% of IKZF3 protein reduction)
  % of IKZF3 (upper band) protein reduction: >25% (>25% for 26-74% of IKZF3 protein reduction)
SALL4; at 1 μM
  % of SALL4 protein reduction: >25% (>25% for 26-74% of SALL4 protein reduction)
SALL4; at 10 μM
  % of SALL4 protein reduction: >25% (>25% for 26-74% of SALL4 protein reduction)
SALL4; at 20 μM
  % of SALL4 protein reduction: ≥75% (≥75% for 75-100% of SALL4 protein reduction)
IKZF1; at 1 μM
  % of IKZF1 protein reduction: ≤25% (≤25% for 0-25% of IKZF1 protein reduction)
IKZF1; at 10 μM
  % of IKZF1 protein reduction: ≤25% (≤25% for 0-25% of IKZF1 protein reduction)
IKZF1; at 20 μM
  % of IKZF1 protein reduction: >25% (>25% for 26-74% of IKZF1 protein reduction)
